Measurements taken from US20230014445A1, “ALLOSTERIC CHROMENONE INHIBITORS OF PHOSPHOINOSITIDE 3-KINASE (PI3K) FOR THE TREATMENT OF DISEASE” (Petra Pharma Corporation, priority 2021, published 2023).

Legend:
[1] = target: T1, human full length PIK3KA Wild-type (p110α/p85α complex) (Homo sapiens, UniProt P42336); assay: PI3K-Alpha Kinase (PIK3CA) biochemical activity, wild-type (ADP-Glo); conditions: 20 uM ATP
T1 construct: Recombinant, catalytically active human full length PIK3KA Wild-type and H1047R mutant were purchased; 6xHis (N); purchased EMD Millipore Sigma 14-602M
Excerpt: (§1) PI3K-Alpha Kinase (PIK3CA) Activity, Wild-Type and H1047R Mutant and Determining IC50 Values for Inhibitors
(§2) Recombinant, catalytically active human full length PIK3KA Wild-type and H1047R mutant were purchased as 1:1 complex of N-terminal 6×his tagged p110α (catalytic) and untagged p85α, (regulatory subunit) from EMD Millipore Sigma (cat. no. 14-602M and 14-792M, respectively). PIP2diC8 (Avanti Polar Lipids Inc., cat. no. 850185) or Soy PI (Avanti Polar Lipids Inc., cat. No. 840044P) was used as lipid substrate. PIP2diC8 or PI lyophilized powder was dissolved in milliQ water to a concentration of 1 mM just before use. 10 mM stock compounds in DMSO were serially diluted 1:3 to generate a 10-point curve and plated using an acoustic liquid handler system (Echo 550 series instrument, Labcyte). A 10× intermediate compound plate (200 uM starting compound concentration and 10% DMSO) was prepared before starting the reaction. A typical reaction mixture (50 uL) comprised 40 mM HEPES buffer, pH 7.4, 25 mM MgCl2, 0.01% v/v triton-X-100, 1% v/v DMSO, 20 mM NaCl, 1-5 nM WT or H1047R PI3K protein, 20 uM ATP, and 50 uM PIP2diC8 or Soy PI. 1% DMSO buffer alone without test compound was employed as MAX control (full activity in the absence of any inhibitor), and no enzyme control was used to determine the level of background Adenosine 5′-diphosphate (ADP) (MIN control). First, Wild-type (WT) and H1047R mutant protein in kinase buffer with all components except ATP were incubated with or without compound at 27° C. for 1 h. After the pre-incubation, the reaction was initiated by the addition of […] (20 uM final concentration). The reaction was allowed to proceed until about 10% conversion of ATP (2 uM ADP) at 27° C. After that time, 5 uL of reaction was mixed with 5 uL of ADP-Kinase Glo Reagent (ADP-Glo Kinase assay kit, Promega cat. no. V9102) supplemented with MgCl2 10 mM to stop the reaction and deplete the remaining ATP for 40 min at room temperature. Then, 10 uL of Kinase Detection Reagent (ADP-Glo Kinase assay kit, Promega cat. no. V9102) was added to simultaneously convert ADP to ATP and allow the newly synthesized ATP to be measured using a luciferase/luciferin reaction. After 30 min at room temperature the light generated was measured using a luminometer (EnVision plate reader, Perkin Elmer). Process data through Genedata-Screener tool. Relative IC50 values are determined using luminescence units by calculating percent inhibition with respect to on-plate “MIN” and “MAX” controls. Data was analyzed using a 4-parameter nonlinear logistic equation (four-parameter logistic concentration-response curve):
(§3) Y=bot+[(top−bot)/1+(x/IC50)slope]
(§4) where Y=% inhibition, X=concentration yielding y % inhibition, Bottom=minimum value of y attained by curve, Top=maximum value of y attained by curve and Slope=steepness of curve at IC50.
(§5) % Inh=[(median Max−x/median Max−median Min)]·100
(§6) IC50: concentration of compound that reduces a given response (ligand binding, enzyme response) by 50%. IC50 relative: concentration giving half the compound's maximum response.
(§7) For IC50 values shown in Table A, “A” means IC50<0.5 μM; “B” means IC50 ranging between 0.5 μM and 1.0 μM; “C” means IC50 ranging between 1 μM and 5 μM; “D” means IC50 ranging between 5 μM and 10 μM; “E” means IC50>10 μM.

[2] = target: T2, human full length PIK3KA H1047R mutant (p110α/p85α complex) (Homo sapiens, UniProt P42336, H1047R); assay: PI3K-Alpha Kinase (PIK3CA) biochemical activity, H1047R mutant (ADP-Glo); conditions: 20 uM ATP
T2 construct: Recombinant, catalytically active human full length PIK3KA Wild-type and H1047R mutant were purchased; 6xHis (N); purchased EMD Millipore Sigma 14-792M
Excerpt: as §1, §2, §3, §4, §5, §6, §7

T2 sequence (P42336 whole entry H1047R): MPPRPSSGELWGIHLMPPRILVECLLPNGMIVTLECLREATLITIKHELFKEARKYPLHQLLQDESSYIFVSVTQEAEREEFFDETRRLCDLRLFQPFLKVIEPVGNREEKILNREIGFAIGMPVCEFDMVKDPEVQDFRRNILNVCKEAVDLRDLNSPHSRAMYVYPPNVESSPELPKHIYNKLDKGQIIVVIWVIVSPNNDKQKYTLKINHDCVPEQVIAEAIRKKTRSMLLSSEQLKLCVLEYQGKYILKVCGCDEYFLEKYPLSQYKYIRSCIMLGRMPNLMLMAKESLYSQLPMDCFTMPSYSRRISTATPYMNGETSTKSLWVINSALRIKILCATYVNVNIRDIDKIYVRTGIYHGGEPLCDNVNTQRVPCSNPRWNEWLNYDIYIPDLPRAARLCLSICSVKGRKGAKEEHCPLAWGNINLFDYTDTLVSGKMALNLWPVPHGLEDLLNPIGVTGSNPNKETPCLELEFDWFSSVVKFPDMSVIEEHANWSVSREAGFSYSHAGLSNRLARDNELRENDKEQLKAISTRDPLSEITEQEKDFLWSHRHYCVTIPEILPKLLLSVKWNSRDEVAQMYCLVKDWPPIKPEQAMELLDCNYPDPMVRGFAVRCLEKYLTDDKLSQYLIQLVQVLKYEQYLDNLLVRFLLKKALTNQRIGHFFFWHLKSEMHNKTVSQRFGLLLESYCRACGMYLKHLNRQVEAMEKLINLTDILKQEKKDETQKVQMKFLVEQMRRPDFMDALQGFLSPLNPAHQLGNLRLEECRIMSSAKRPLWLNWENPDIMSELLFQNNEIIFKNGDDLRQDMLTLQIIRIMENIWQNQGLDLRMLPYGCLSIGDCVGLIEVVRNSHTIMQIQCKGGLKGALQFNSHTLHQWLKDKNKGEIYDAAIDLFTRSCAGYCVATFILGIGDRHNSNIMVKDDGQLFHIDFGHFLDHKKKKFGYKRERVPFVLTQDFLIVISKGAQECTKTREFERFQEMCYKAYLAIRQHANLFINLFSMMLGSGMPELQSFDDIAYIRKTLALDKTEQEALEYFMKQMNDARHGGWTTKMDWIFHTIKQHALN
T2 sequence (P27986 whole entry partner): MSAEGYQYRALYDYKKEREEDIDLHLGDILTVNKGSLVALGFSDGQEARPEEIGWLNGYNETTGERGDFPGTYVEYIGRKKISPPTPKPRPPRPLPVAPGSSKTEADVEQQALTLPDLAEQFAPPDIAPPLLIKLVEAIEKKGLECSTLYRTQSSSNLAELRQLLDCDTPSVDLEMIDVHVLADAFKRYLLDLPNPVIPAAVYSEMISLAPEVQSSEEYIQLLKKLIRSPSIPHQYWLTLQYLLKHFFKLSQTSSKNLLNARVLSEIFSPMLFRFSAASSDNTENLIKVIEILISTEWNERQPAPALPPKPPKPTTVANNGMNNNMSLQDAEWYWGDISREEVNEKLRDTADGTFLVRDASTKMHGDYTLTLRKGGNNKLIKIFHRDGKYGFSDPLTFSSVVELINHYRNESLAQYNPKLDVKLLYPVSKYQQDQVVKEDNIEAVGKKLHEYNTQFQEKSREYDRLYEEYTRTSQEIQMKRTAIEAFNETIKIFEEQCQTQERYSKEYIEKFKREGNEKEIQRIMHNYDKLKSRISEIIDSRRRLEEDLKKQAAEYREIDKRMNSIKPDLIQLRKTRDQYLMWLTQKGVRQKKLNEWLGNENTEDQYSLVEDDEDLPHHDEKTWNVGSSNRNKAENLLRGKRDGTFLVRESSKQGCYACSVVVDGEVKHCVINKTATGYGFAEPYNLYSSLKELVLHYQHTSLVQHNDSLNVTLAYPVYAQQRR

IC50 ([1]; Soy PI lipid substrate) | IC50 ([2]; Soy PI lipid substrate) | IC50 ([1]; PIP2diC8 lipid substrate) | IC50 ([2]; PIP2diC8 lipid substrate) | Compound
 |  | 1000 to 5000 nM | < 500 nM | Cc1cc(C(C)Nc2ccccc2C(=O)O)c2oc(-c3cnccn3)cc(=O)c2c1 (single isomer, unassigned; isomer 1) [Example 15, 2-[1-(6-Methyl-4-oxo-2-pyrazin-2-yl-chromen-8-yl)ethylamino]benzoic acid, Isomer 1]
 |  | 5000 to 10000 nM | < 500 nM | Cc1cc(C(C)Nc2ccccc2C(=O)O)c2oc(-c3cnc(C)nc3)cc(=O)c2c1 (single isomer, unassigned; isomer 1) [Example 32, 2-[1-[6-Methyl-2-(2-methylpyrimidin-5-yl)-4-oxo-chromen-8-yl]ethylamino]benzoic acid, Isomer 1]
> 10000 nM | < 500 nM |  |  | Cc1cc(C(C)Nc2ccccc2C(=O)O)c2oc(-c3ncccn3)cc(=O)c2c1 (single isomer, unassigned; isomer 2) [Example 3, 2-[1-(6-Methyl-4-oxo-2-pyrimidin-2-yl-chromen-8-yl)ethylamino]benzoic acid, Isomer 2]
1000 to 5000 nM | < 500 nM |  |  | Cc1cc(C(C)Nc2ccccc2C(=O)O)c2oc(-c3cccnc3)cc(=O)c2c1 (single isomer, unassigned; isomer 2) [Example 14, 2-[1-[6-Methyl-4-oxo-2-(3-pyridyl)chromen-8-yl]ethylamino]benzoic acid, Isomer 2]
 |  | > 10000 nM | > 10000 nM | Cc1cc(C(C)Nc2ccccc2C(=O)O)c2oc(-c3cnccn3)cc(=O)c2c1 (single isomer, unassigned; isomer 2) [Example 16, 2-[1-(6-Methyl-4-oxo-2-pyrazin-2-yl-chromen-8-yl)ethylamino]benzoic acid, Isomer 2]
 |  | > 10000 nM | > 10000 nM | Cc1cc(C(C)Nc2ccccc2C(=O)O)c2oc(-c3ccccn3)cc(=O)c2c1 (single isomer, unassigned; isomer 2) [Example 18, 2-[1-[6-Methyl-4-oxo-2-(2-pyridyl)chromen-8-yl]ethylamino]benzoic acid, Isomer 2]
1000 to 5000 nM | < 500 nM |  |  | COc1ccc(-c2cc(=O)c3cc(C)cc(C(C)Nc4ccccc4C(=O)O)c3o2)cn1 (single isomer, unassigned; isomer 2) [Example 20, 2-[1-[2-(6-Methoxy-3-pyridyl)-6-methyl-4-oxo-chromen-8-yl]ethylamino]benzoic acid, Isomer 2]
5000 to 10000 nM | < 500 nM |  |  | Cc1cc(C(C)Nc2ccccc2C(=O)O)c2oc(-c3cnc(C4CC4)nc3)cc(=O)c2c1 (single isomer, unassigned; isomer 2) [Example 26, 2-[1-[2-(2-Cyclopropylpyrimidin-5-yl)-6-methyl-4-oxo-chromen-8-yl]ethylamino]benzoic acid, Isomer 2]
 |  | 1000 to 5000 nM | < 500 nM | Cc1cc(C(C)Nc2ccccc2C(=O)O)c2oc(-c3ccc(OC(C)C)nc3)cc(=O)c2c1 (single isomer, unassigned; isomer 2) [Example 31, 2-[1-[2-(6-Isopropoxy-3-pyridyl)-6-methyl-4-oxo-chromen-8-yl]ethylamino]benzoic acid, Isomer 2]
> 10000 nM | < 500 nM |  |  | Cc1cc(C(C)Nc2ccccc2C(=O)O)c2oc(-c3ccc(C(F)(F)F)nc3)cc(=O)c2c1 (single isomer, unassigned; isomer 2) [Example 38, 2-[1-[6-Methyl-4-oxo-2-[6-(trifluoromethyl)-3-pyridyl]chromen-8-yl]ethylamino]benzoic acid, Isomer 2]

More lines, now with the values behind:

Compound | IC50 ([1]; Soy PI lipid substrate) | IC50 ([2]; Soy PI lipid substrate) | IC50 ([1]; PIP2diC8 lipid substrate) | IC50 ([2]; PIP2diC8 lipid substrate)
Cc1cc(C(C)Nc2ccccc2C(=O)O)c2oc(-c3cnn(-c4ccccn4)c3)cc(=O)c2c1 (single isomer, unassigned) [Example 108, 2-[1-[6-Methyl-4-oxo-2-[1-(2-pyridyl)pyrazol-4-yl]chromen-8-yl]ethylamino]benzoic acid, Isomer 2,2,2,2-trifluoroacetic acid] | 1000 to 5000 nM | 500 to 1000 nM |  | 
Cc1cc(C(C)Nc2ccccc2C(=O)O)c2oc(-c3cn(-c4ccc(C#N)cc4)nc3C)cc(=O)c2c1 (single isomer, unassigned) [Example 109, 2-[1-[2-[1-(4-Cyanophenyl)-3-methyl-pyrazol-4-yl]-6-methyl-4-oxo-chromen-8-yl]ethylamino]benzoic acid, Isomer 2,2,2,2-trifluoroacetic acid] | 5000 to 10000 nM | 500 to 1000 nM |  | 
Cc1cc(C(C)Nc2ccccc2C(=O)O)c2oc(-c3ccccn3)cc(=O)c2c1 (single isomer, unassigned; isomer 1) [Example 17, 2-[1-[6-Methyl-4-oxo-2-(2-pyridyl)chromen-8-yl]ethylamino]benzoic acid, Isomer 1] | 1000 to 5000 nM | < 500 nM |  | 
Cc1cc(C(C)Nc2ccc(Cl)nc2C(=O)O)c2oc(-c3ccccn3)cc(=O)c2c1 (single isomer, unassigned; isomer 1) [Example 27, 6-Chloro-3-[1-[6-methyl-4-oxo-2-(2-pyridyl)chromen-8-yl]ethylamino]pyridine-2-carboxylic acid, Isomer 1] | 1000 to 5000 nM | < 500 nM |  | 
Cc1cc(C(C)Nc2ccc(Cl)nc2C(=O)O)c2oc(-c3cnccn3)cc(=O)c2c1 (single isomer, unassigned; isomer 1) [Example 28, 6-Chloro-3-[1-(6-methyl-4-oxo-2-pyrazin-2-yl-chromen-8-yl)ethylamino]pyridine-2-carboxylic acid, Isomer 1] | 1000 to 5000 nM | < 500 nM |  | 
Cc1cc(C(C)Nc2ccccc2C(=O)O)c2oc(-c3ncccn3)c(C)c(=O)c2c1 (single isomer, unassigned; isomer 1) [Example 34, 2-[1-(3,6-Dimethyl-4-oxo-2-pyrimidin-2-yl-chromen-8-yl)ethylamino]benzoic acid, Isomer 1] | 1000 to 5000 nM | < 500 nM |  | 
CC(Nc1ccc(Cl)nc1C(=O)O)c1cc(C(F)(F)F)cc2c(=O)cc(-c3ccccn3)oc12 (single isomer, unassigned; isomer 1) [Example 62, 6-Chloro-3-[1-[4-oxo-2-(2-pyridyl)-6-(trifluoromethyl)chromen-8-yl]ethylamino]pyridine-2-carboxylic acid, Isomer 1] | 5000 to 10000 nM | < 500 nM |  | 
Cc1cc(C(C)Nc2ccc(Cl)c(F)c2C(=O)O)c2oc(-c3ccccn3)cc(=O)c2c1 (single isomer, unassigned; isomer 1) [Example 78, 3-Chloro-2-fluoro-6-[1-[6-methyl-4-oxo-2-(2-pyridyl)chromen-8-yl]ethylamino]benzoic acid, Isomer 1] | 5000 to 10000 nM | < 500 nM |  | 
CC(Nc1ccc(Cl)nc1C(=O)O)c1cc(C(F)(F)F)cc2c(=O)cc(-c3cnn(-c4ccc(C#N)cc4)c3)oc12 (single isomer, unassigned; isomer 1) [Example 96, 6-Chloro-3-[1-[2-[1-(4-cyanophenyl)pyrazol-4-yl]-4-oxo-6-(trifluoromethyl)chromen-8-yl]ethylamino]pyridine-2-carboxylic acid, Isomer 1] | 1000 to 5000 nM | < 500 nM |  | 
CC(Nc1ccccc1C(=O)O)c1cc(C(F)(F)F)cc2c(=O)cc(-c3cnn(-c4ccc(C#N)cc4)c3)oc12 (single isomer, unassigned; isomer 1) [Example 99, 2-[1-2-[1-(4-Cyanophenyl)pyrazol-4-yl]-4-oxo-6-(trifluoromethyl)chromen-8-yl]ethylamino]benzoic acid, Isomer 1] | 1000 to 5000 nM | 500 to 1000 nM |  | 
